Values of other authors as cited in publication PMC8309005, “Novel Non-Congeneric Derivatives of the Choline Kinase Alpha Inhibitor ICL-CCIC-0019” (Pharmaceutics, 2021).
pIC50: −log10 of the molar value.

How the values were obtained:
MCF-7 = tested on: MCF-7; set-up: method as in PMID 12678804, PMID 10397253; conditions: cited from earlier work
A431 = tested on: A431; set-up: method as in PMID 12678804, PMID 10397253; conditions: cited from earlier work
HeLa = tested on: HeLa; set-up: method as in ref 20, 21 (MN58B), 23 (RSM-932A); conditions: 21 (MN58B), 23 (RSM-932A); cited from earlier work
HT-29 = tested on: HT-29; set-up: method as in ref 20, 21 (MN58B), 23 (RSM-932A); conditions: 21 (MN58B), 23 (RSM-932A); cited from earlier work
CHKA = tested on: CHKA; set-up: method as in ref 18, 25 (HC-3), 20, 21 (MN58B), 23 (RSM-932A); conditions: CHKA inhibitors of Figure 1; 25 (HC-3), 20, 21 (MN58B), 23 (RSM-932A); cited from earlier work
HepG2 = tested on: HepG2; set-up: method as in PMID 25487918; conditions: cited from earlier work

SMILES	GI50 (MCF-7) [nM]	GI50 (A431) [nM]	GI50 (HeLa) [nM]	GI50 (HT-29) [nM]	pIC50 (CHKA)	GI50 (HepG2) [nM]
CN(C)c1cc[n+](Cc2ccc(CCCCc3ccc(C[n+]4ccc(N(C)C)cc4)cc3)cc2)cc1 [MN58B]	600	2100	1200	1400	5.85	
C/[N+](c1ccc(Cl)cc1)=c1\ccn(Cc2ccc(-c3ccc(Cn4cc/c(=[N+](/C)c5ccc(Cl)cc5)c5ccccc54)cc3)cc2)c2ccccc12 [RSM-932A]			1000	1300	6.00	1300
